# Source: patent US10273257B2, “Cancer cell-containing composition” (KING FAHD UNIVERSITY OF PETROLEUM AND MINERALS, priority 2016, dated 2019)
# Several values for one entry are separate records, joined by “and”; a condition that tells them apart may be missing. Identical values can stand only once.
# Assays:
# MDA-MB231 cells = assay: MTT assay for anticancer activity, MDA-MB231 cells; type: cell-based, human; conditions: MDA-MB231 breast cancer cells, 3-day exposure protocol
# Method: (§1) Human breast cancer cells (MDA-MB231, MCF-7) were grown in Dulbecco's modified Eagle's medium (DMEM) supplemented with 10% fetal bovine serum (FBS) and 1% penicillin (10,000 units) with streptomycin (10 mg) in a 74 cm^2 flask and incubated until 80% confluence was obtained in a humidified environment of 5% CO2-95% air at 37° C.
# (§2) Cancer cells were seeded and maintained in quadruplicate in a 96-well tissue culture plate at 5×10^3 cells per well in 150 μl of the same medium. The cancer cells were incubated for 24 hours before the treatment. All compounds were dissolved in 50% DMSO. Therefore, DMSO was used as a negative control. Complexes 1-5 and cisplatin (positive control) at 0.01 μM, 0.05 μM, 0.1 μM, 1 μM, 5 μM, 10 μM, and 50 μM concentrations were prepared in DMEM. The final DMSO concentration, in each well, was less than 0.1%.
# (§3) The cancer cells were treated with the synthesized compounds 1-5 and cisplatin and then incubated for […]. The medium from the wells was discarded and 100 μL of DMEM containing MTT (3-(4,5-dimethylthiazol-2-yl)-2,5-diphenyltetrazolium bromide) (5 mg/mL) was added to the wells. The cells were incubated in a CO2 incubator at 37° C. in the dark for 4 h. After incubation, a purple colored formazan (an artificial chromogenic dye, a product of the reduction of water […] tetrazolium salts, such as MTT, by dehydrogenases and reductases) was produced by the cells and appeared as dark crystals in the bottom of the wells. The medium from each well was discarded carefully to avoid disruption of the monolayer. 100 μL of isopropanol was added in each well. The solution was thoroughly mixed in the wells to dissolve the formazan crystals which ultimately results into a purple solution. The absorbance of the 96-well plate was taken at 570 nm with Mithras^2LB943 against a blank (e.g. unreduced MTT in isopropanol). All data presented are mean t standard deviation.
# (§4) The in vitro cytotoxic effect of mixed ligand gold(I) complexes 1-5 against MDA-MB231 and MCF-7 were studied using the MTT assay. The in vitro cytotoxic activity depends on the exposure time and the concentrations of the complexes. For that reason, different concentrations of the complexes and a 3-day exposure protocol to determine the IC50 values for all five complexes and cisplatin were used.
# MCF-7 cells = assay: MTT assay for anticancer activity, MCF-7 cells; type: cell-based, human; conditions: MCF-7 breast cancer cells, 3-day exposure protocol
# Method: as §1, §2, §3, §4
# [1] = test system: EB-DNA system (CT DNA treated with EB); assay: Ethidium bromide displacement fluorescence quenching (Stern-Volmer); type: binding, calf; conditions: EB-bound CT DNA, emission at 585-590 nm
# Method: Luminescence titrations involving quenching experiments were conducted by adding increasing concentration of the complexes to a fixed concentration of EB-DNA system. The Tris-HCl buffer was used as a blank to make preliminary adjustments. The Stern-Volmer quenching constant, Ksv was obtained from the following equation (Lakowiez, R. J.; Webber, G. Quenching of fluorescence by oxygen. Probe for structural fluctuations in macromolecules. Biochem. 1973, 12, 4161-4170, incorporated herein by reference in its entirety). I0/I=1+KSV·r (4) where r is the ratio of total concentration of complex to that of DNA, and Io and I are the fluorescence intensities of EB in the absence and presence of complex.
# A reliable method for studying the binding of molecules to nucleic acids is the fluorescence quenching method. Ethidium bromide (EB) is a planar cationic dye which is widely used as a sensitive fluorescence probe for native DNA. EB emits intense fluorescent light in the presence of DNA due to its strong intercalation between the adjacent DNA base pairs. The displacement technique is based on the decrease of fluorescence resulting from the displacement of EB from a DNA sequence by a quencher, and the quenching is due to the reduction of the number of binding sites on the DNA that are available to the EB (Ramachandran. E.; Raja, S. D.; Bhuvanesh, P. S. N.; Natarajan, K. Mixed ligand palladium(II) complexes of 6-methoxy-2-oxo-1,2-dihydroquinoline-3-carbaldehyde 4N-substituted thiosemicarbazones with triphenylphosphine co-ligand: Synthesis, crystal structure and biological properties. Dalton Trans. 2012, 41 13308-13323, incorporated herein by reference in its entirety). […] From the above data, it is clear that 4 replaces EB more effectively than other complexes, and this observation agreed with the results obtained from electronic absorption studies.
# CT-DNA = assay: Fluorescence emission titration with CT-DNA (Scatchard); type: binding, calf; conditions: complex 1.3×10^−4 M, excitation 275 nm, Tris-HCl/NaCl buffer, mean standard deviations ±0.07
# Method: Fluorescence experiments were carried out at a constant concentration of the complexes with increasing CT-DNA concentrations. The binding constant, K, of the gold(I) complexes was determined from Scatchard eqs. (2) and (3) by employing emission titration (Liu, D. G.; Liao, P. J.; Fang, Z. Y.; Huang, S. S.; Sheng, L. G.; Yu, Q. R. Interaction of bis(ethylene)tin(bis(salicylidene)ethylenediamine) with DNA. Anal. Sci. 2002, 18 391-395; and Healy, F. E. Quantitative determination of DNA-ligand binding using fluorescence spectroscopy. J. Chem. Educ. 2007, 84, 1304-1307, each incorporated herein by reference in their entirety). CF=CT(I/Io−P)(1−P) (2) r/CF=K(n−r) (3) where CF is the free probe (i.e. free metal complex) concentration, CT is the total concentration of the probe added, I and Io are fluorescence intensities in the presence and absence of CT-DNA, respectively, r denotes a ratio of CB (CB=CT−CF) to the DNA concentration, i.e., the bound probe concentration to the DNA concentration, K is the binding constant, “n” is the binding site number, and P is the ratio of the observed fluorescence quantum yield of the bound probe to that of the free probe. The value P was obtained as the intercept by extrapolating from a plot of I/Io vs. 1/[DNA].
# The fluorescence emission titration of complexes 1-5 was carried out in order to understand the nature of binding mode of these complexes with CT-DNA. This method is highly sensitive, reproducible, and accurate. In the absence of CT-DNA, all complexes 1-5 (concentration=1.3×10^−4 M) emitted strong luminescence when excited at 275 nm in Tris-HCl/NaCl buffer with an emission maximum appearing at 340 nm. However, the subsequent addition of CT-DNA from 0.067-0.5×10^−4 M caused a gradual enhancement in the fluorescence intensity of the complexes with no apparent change in the shape and position of the emission bands (FIGS. 10A-10E), which is indicative of a strong interaction of the Au(I) drug entities with CT DNA. The hydrophobic molecular structure of CT DNA could be responsible for enhancing the fluorescence quantum yield of complexes, leading to the higher fluorescence intensity with increasing concentration of CT DNA. In addition, energy transfer from CT-DNA to metal complexes could also induce fluorescence enhancement (Arjmand, F.; Jamsheera, A.; Afzal, M.; S. Tabassum, S. Enantiomeric Specificity of Biologically Significant Cu(II) and Zn(II) Chromone Complexes Towards DNA. Chirality. 2012, 24, 977-986, Tabassum, S.; Yadav, S.; Arjmand, F. Synthesis and mechanistic insight of glycosylated Cu^II/Ni^II—Sn2^IV heterobimetallic DNA binding agents: Validation of a specific Cu^II—Sn2^IV chemotherapeutic agent for human leukemic cell line K-562. J. Organomet. Chem. 2013, 745-746, 226-234, incorporated herein by reference in its entirety).
Structure (SMILES),IC50 (MDA-MB231 cells) [µM],IC50 (MCF-7 cells),Stern-Volmer quenching constant KSV [1],Scatchard binding constant K (CT-DNA) [M⁻¹]
"N.N.[Cl][Pt][Cl] [Cisplatin, reference compound]",25.8,0.0059 µM,,
"CN(C)C(=S)[S][Au-][P+](C)(C)C [Complex 1, (Me)3PAu(S2CN{Me}2)]",0.044,0.0078 µM,0.19,28000
"CC[P+](CC)(CC)[Au-][S]C(=S)N(C)C [Complex 2, (Et)3PAu(S2CN{Me}2)]",0.055,0.0064 µM,0.34,35000
"CCN(CC)C(=S)[S][Au-][P+](C)(C)C [Complex 3, (Me)3PAu(S2CN{Et}2)]",0.043,0.0088 µM,0.67,57000
"CCN(CC)C(=S)[S][Au-][P+](CC)(CC)CC [Complex 4, (Et)3PAu(S2CN{Et}2)]",0.044,0.0053 µM,0.91,66000
"CC(C)[P+]([Au-][S]C(=S)N(C)C)(C(C)C)C(C)C [Complex 5, (i-Pr)3PAu(S2CN{Me}2)]",0.7,0.0078 µM and 0.0079 µM,0.10,19000
